“Also recorded” adds a separate entry of the source.
Test system: human subjects diagnosed with acute bronchiolitis
Experiment: Example 3: randomized bronchiolitis study, infants 2-12 months; 160 ppm NO 30 min 5x daily up to 5 days plus O2 vs O2 alone; safety and tolerability
Type: in vivo
From the text: Eligible subjects were randomized (1:1) to receive intermittent NO and standard treatment with O2 (hereafter referred to as NO treatment) or standard treatment with O2 (hereafter referred to as standard treatment) alone for a treatment period of up to 5 days. During treatment, MetHb and O2 saturation levels were continuously monitored using a dedicated monitor.
In addition to standard supportive O2 treatment which was initiated prior to randomization, subjects in the NO group were given five 30 minute inhalations per day of 160 ppm NO, at intervals of 3 to 4 hours, until subject improvement led to a physician decision of fit to discharge, to a maximum of 25 inhalations over 5 consecutive days. Inhalations were administered via hospital face masks (Hospiltak, Unomedical Inc).
All subjects in the control group were managed with standard supportive O2 treatment in the same way as the active treatment group, but without actual NO administration.
Methemoglobin and O2 saturation levels were also continuously monitored using a dedicated monitor. In the event of MetHb>5% or O2 saturation less than 89%, treatment was temporarily discontinued, and measurement repeated 30 minutes later. If value(s) had returned to within the safety threshold, the next inhalation was started according to protocol. In any case of a second episode of MeHb greater than 5%, study treatment was to be permanently discontinued.
Primary Endpoints—Safety and Tolerability: • Safety: • Determine the MetHb percentage associated with inhaled NO • Determine AEs associated with inhaled NO • Tolerability: • Proportion of subjects (%) who prematurely discontinued the study or study treatment for any reason • Proportion of subjects (%) who prematurely discontinued the study treatment due to AEs

SMILES: [N]=O [NO, nitric oxide]
- Time for MetHb to approach pre-treatment levels (after end of 30 min treatment): approximately 3 hours
- Completed entire treatment and study duration, % of subjects (all randomized): 90.5%
- Early discontinuation of study (all randomized): (0.0%)
- Early discontinuation of study, withdrawal of consent (all randomized): (0.0%)
- Early discontinuation of treatment due to AE (all randomized): (4.8%)^(1)
- Early discontinuation of treatment due to SAE (all randomized): (0.0%)
- Early discontinuation of treatment only (all randomized): (9.5%)
- Early discontinuation of treatment, Physician/Investigator decision (all randomized): (4.8%)^(3)
- Subjects that discontinued study treatment or discontinued the study (all randomized): (9.5%)
- Completed entire treatment and study duration, % of subjects (all randomized, listed as NO and Standard Treatment (O2)): (90.5%)
- Subjects with any MetHb measurement greater than 5% (during the study treatment period): 28.6%
- Serious adverse events reported by (human, in vivo, 160 ppm): 4 subjects
- Subjects reporting at least 1 AE (human, in vivo, 160 ppm): 47.6%
- Deaths during the study (in vivo): no deaths
- maximum MetHb (one subject (Subject 44)): 5.6%
- Cumulative effect on MetHb levels (over the study treatment period): no “cumulative” effect; also recorded: no cumulative effect
